Assay results taken from patent publication US11572371B2, “BRD4 inhibitor” (HINOVA PHARMACEUTICALS INC., priority 2017, dated 2023).

System: CWR22RV1 cells
Assay: Inhibition of CWR22RV1 cell proliferation (CCK-8)
Assay type: cell-based
Conditions: Homo sapiens, CWR22Rv1, 144 h, read-out: IC50 on CWR22RV1
Experimental: Test Example 2 Biological Determination of the Inhibitory Effect of the Compound on CWR22RV1 Cell Proliferation
Experimental Materials: • CWR22RV1 cell line (Cell bank of Chinese Academy of Sciences, TCHu100) • FBS (Gibco, Cat. No. 10099-141) • 0.01M PBS (Biosharp, Cat. No. 162262) • RIPM1640 (Hyclone, Cat. No. 308090.01) • Penicillin-Streptomycin (Hyclone, Cat. No. SV30010) • Cell counting kit-8(Signalway Antibody, Cat. No. CP002) • DMSO (Sigma, Cat. No. D5879) • Centrifuge Tube, 15 ml (Excell Bio, Cat. No. CS015-0001) • Cell Culture Dish, (Excell Bio, Cat. No. CS016-0128) • 96-well cell culture cluster (Corning, Cat. No. 3599)
(1) CWR22RV1 cells were subcultured with cell culture medium, and well-growth cells were inoculated in 96-well plates, with 80 μL per well. The number of cells in each well was 1500, and the plate was cultured overnight in a 37° C., 5% CO2 cell incubator.
(2) The drug was prepared as a 30 mM stock solution using dimethyl sulfoxide (DMSO). before use, the stock solution was diluted 3 times with DMSO, and then diluted by a 3 times gradient to obtain 9 concentration gradients. The compound at each concentration was further diluted 200 times with the culture solution (to ensure that the DMSO concentration in the culture system was 0.1%), and each concentration was repeated 2 wells. 20 μL of the diluted compound was added to the cell culture wells (with final concentrations of 10 μM, 3.3 μM, 1.1 μM . . . ), and gently shaked to mix. In addition, three negative control wells containing only cells and three blank control wells containing only culture medium (6 wells each containing 20 μL DMSO 200-fold diluted with culture medium) were set.
(1) After being cultured for 6 days, 10 μL CCK-8 was added to each well, and the cells were further cultured in a 5% CO2 cell incubator at 37° C. for 2.5 hours.
(2) The absorbance (OD value) was measured at 450 nm with a multifunctional microplate reader.
(3) The data were analyzed with the Dose-response-inhibition equation in the software GraphPad Prism6, and IC50 values were obtained.

Row | Compound | IC50 [nM]
1 | Cc1nnc(C[C@@H]2N=C(c3ccc(Cl)cc3)c3c(sc(C)c3C)-n3c(C)nnc32)o1 [Compound 21, (S)-2-((4-(4-chlorophenyl)-2,3 ,9-trimethyl-6H-thieno[3,2-f][1,2,4]triazolo[4,3-a][1,4]diaza-6-yl)methyl)-5-methyl-1,3,4-oxodiazole] | 33
2 | Cc1sc2c(c1C)C(c1ccc(Cl)cc1)=N[C@@H](Cc1nnc(CO)o1)c1nnc(C)n1-2 [Compound 7, (S)-(5-((4-(4-chlorophenyl)-2,3,9-trimethyl-6H-thieno[3,2-f][1,2,4]triazolo[4,3-a][1,4]diaza-6-yl)methyl)-1,3,4-oxodiazole-2-yl)methanol] | 89
3 | Cc1sc2c(c1C)C(c1ccc(Cl)cc1)=N[C@@H](Cc1nc(CCl)co1)c1nnc(C)n1-2 [Compound 27, 2-(4-(4-chlorophenyl)-2,3,9-trimethyl-6H-thieno[3,2-f][1,2,4]triazolo[4,3-a][1,4]diaza-6-yl)-4-chloromethyloxazole] | 29
4 | Cc1sc2c(c1C)C(c1ccc(Cl)cc1)=N[C@@H](Cc1nncn1C(C)C)c1nnc(C)n1-2 [Compound 25, (S)-4-(4-chlorophenyl)-6-((4-isopropyl-4H-1,2,4--3-yl)methyl)-2,3,9-trimethyl-6H-thieno[3,2-f][1,2,4]triazolo[4,3-a][1,4]diazepine] | 1310
5 | Cc1sc2c(c1C)C(c1ccc(Cl)cc1)=N[C@@H](Cc1nnc(C(C)(C)C)o1)c1nnc(C)n1-2 [Compound 23, (S)-2-(t-butyl)-5-((4-(4-chlorophenyl)-2,3,9-trimethyl-6H-thieno[3,2-f][1,2,4]triazolo[4,3-a][1,4]diaza-6-yl)methyl) -1,3,4-oxodiazole] | 179

Same assay, conditions: Homo sapiens, CWR22Rv1, 144 h; cultured for 6 days, CCK-8; read-out: IC50 on CWR22RV1

Row | Compound | IC50 [nM]
6 | Cc1sc2c(c1C)C(c1ccc(Cl)cc1)=N[C@@H](Cc1nnc(CCl)o1)c1nnc(C)n1-2 [Compound 4, (S)-2-chloromethyl-5-((4-(4-chlorophenyl)-2,3,9-trimethyl-6H-thieno[3,2-f][1,2,4]triazolo[4,3-a][1,4]diaza-6-yl)methyl)-1,3,4-oxodiazole] | 28
7 | Cc1sc2c(c1C)C(c1ccc(Cl)cc1)=N[C@@H](Cc1nnc(CNCCO)o1)c1nnc(C)n1-2 [Compound 14, (S)-2-(((5-((4-(4-chlorophenyl)-2,3,9-trimethyl-6H-thieno[3,2-f][1,2,4]triazolo[4,3-a][1,4]diaza-6-yl)methyl)-1,3,4-oxodiazole-2-yl)methyl)amino)ethanol] | 163
8 | COCc1nnc(C[C@@H]2N=C(c3ccc(Cl)cc3)c3c(sc(C)c3C)-n3c(C)nnc32)o1 [Compound 5, (S)-2-((4-(4-chlorophenyl)-2,3,9-trimethyl-6H-thieno[3,2-f][1,2,4]triazolo[4,3-a][1,4]diaza-6-yl)methyl)-5-(methoxylmethyl)-1,3,4-oxodiazole] | 45
9 | Cc1noc(C[C@@H]2N=C(c3ccc(Cl)cc3)c3c(sc(C)c3C)-n3c(C)nnc32)n1 [Compound 30, (S)-5-((4-(4-chlorophenyl)-2,3,9-trimethyl-6H-thieno[3,2-f][1,2,4]triazolo[4,3-a][1,4]diaza-6-yl)methyl)-3-methyl-1,2,4-oxodiazole] | 47
10 | Cc1sc2c(c1C)C(c1ccc(Cl)cc1)=N[C@@H](Cc1nnc(CN3CC(C(=O)O)C3)o1)c1nnc(C)n1-2 [Compound 17, (5)-1-((5-((4-(4-chlorophenyl)-2,3,9-trimethyl-6H-thieno[3,2-f][1,2,4]triazolo[4,3-a][1,4]diaza-6-yl)methyl)-1,3,4-oxodiazole-2-yl)methyl)azacyclobutane-3-carboxylic acid] | 2380
11 | Cc1sc2c(c1C)C(c1ccc(Cl)cc1)=N[C@@H](Cc1nnc(CN3CCC(C(=O)O)CC3)o1)c1nnc(C)n1-2 [Compound 16, (5)-1-((5-((4-(4-chlorophenyl)-2,3,9-trimethyl-6H-thieno[3,2-f][1,2,4]triazolo[4,3-a][1,4]diaza-6-yl)methyl)-1,3,4-oxodiazole-2-yl)methyl)piperidin-4-carboxylic acid] | 2650
12 | C=CC(=O)NCc1nnc(C[C@@H]2N=C(c3ccc(Cl)cc3)c3c(sc(C)c3C)-n3c(C)nnc32)o1 [Compound 11, (S)-N-((5-((4-(4-chlorophenyl)-2,3,9-trimethyl-6H-thieno[3,2-f][1,2,4]triazolo[4,3-a][1,4]diaza-6-yl)methyl)-1,3,4-oxodiazole-2-yl)methyl)acrylamide] | 54
13 | COC(=O)C1CCN(Cc2nnc(C[C@@H]3N=C(c4ccc(Cl)cc4)c4c(sc(C)c4C)-n4c(C)nnc43)o2)CC1 [Compound 15, (S)-methyl-1-((5-((4-(4-chlorophenyl)-2,3,9-trimethyl-6H-thieno[3,2-f][1,2,4]triazolo[4,3-a][1,4]diaza-6-yl)methyl) -1,3,4-oxodiazole-2-yl)methyl)piperidin-4-carboxylic ester] | 59
14 | CC(=O)NCc1nnc(C[C@@H]2N=C(c3ccc(Cl)cc3)c3c(sc(C)c3C)-n3c(C)nnc32)o1 [Compound 9, (S)-N-((5-((4-(4-chlorophenyl)-2,3,9-trimethyl-6H-thieno[3,2-f][1,2,4]triazolo[4,3-a][1,4]diaza-6-yl)methyl)-1,3,4-oxodiazole-2-yl)methyl)acetylamine] | 110
15 | Cc1sc2c(c1C)C(c1ccc(Cl)cc1)=N[C@@H](Cc1nnc(CNS(C)(=O)=O)o1)c1nnc(C)n1-2 [Compound 10, (S)-N-((5-((4-(4-chlorophenyl)-2,3,9-trimethyl-6H-thieno[3,2-f][1,2,4]triazolo[4,3-a][1,4]diaza-6-yl)methyl) -1,3,4-oxodiazole-2-yl)methyl) methanesulfonamide] | 63
16 | Cc1sc2c(c1C)C(c1ccc(Cl)cc1)=N[C@@H](Cc1nnc(CN3CCS(=O)(=O)CC3)o1)c1nnc(C)n1-2 [Compound 12, (S)-4-((5-((4-(4-chlorophenyl)-2,3,9-trimethyl-6H-thieno[3,2-f] [1,2,4]triazolo[4,3-a][1,4]diaza-6-yl)methyl)-1,3,4-oxodiazole-2-yl)methyl)thiomorpholine 1,1-dioxide] | 110
17 | Cc1sc2c(c1C)C(c1ccc(Cl)cc1)=N[C@@H](Cc1nnc(CN3CC(O)C3)o1)c1nnc(C)n1-2 [Compound 18, (5)-1-((5-((4-(4-chlorophenyl)-2,3,9-trimethyl-6H-thieno[3,2-f][1,2,4]triazolo[4,3-a][1,4]diaza-6-yl)methyl)-1,3,4-oxodiazole-2-yl)methyl)azacyclobutane-3-ol] | 89
